According to patent US11091478B2 (Fochon Pharmaceuticals, Ltd., priority 2017, dated 2021):

Experiments:
DOHH2 cells = assay: Cell proliferation assay (MTS), DOHH2 cells, 120 h; assay type: cell-based; conditions: Homo sapiens, DOHH-2, 120 h
Summary of the method: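 Proliferation was scored by MTS (2 h, then SDS stop, A490 with 650 nm reference) and IC50 derived. Compound ran at nine final concentrations from 1.5 to 10000 nM. DOHH2 were incubated 120 h and RS4;11 72 h, both plated at 5000 cells/well in RPMI-1640 plus 10% FBS.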

RS4;11 cells = assay: Cell proliferation assay (MTS), RS4;11 cells, 72 h; assay type: cell-based; conditions: Homo sapiens, RS4-11, 72 h
Source text: Cell Proliferation Assays
MTS testing kit was purchased from Promega. The RPMI-1640, Fetal bovine serum and Penicillin-Streptomycin were purchased from Gibco. Dimethyl sulfoxide (DMSO) was purchased from Sigma.
To investigate whether a compound is able to inhibit the activity of BCL-2 in cells, a mechanism-based assay using DOHH2 (DSMZ No.® ACC 47) and RS4;11 (ATCC® CRL-1873™) cell was developed. In this assay, inhibition of Bcl-2 was detected by the inhibition of DOHH2 cells proliferation. DOHH2 cells were cultured in culture flasks to 40-80% confluence in RPMI-1640 plus 10% fetal bovine serum. Cells were collected and plated onto 96-well plates at desired cell density (5000 cells/well). Plates were incubated overnight at 37° C., with 5% CO2 to adhere. Compounds were added to the plates, and the final compound concentrations were 10000, 3333, 1111, […], 124, 41, 14, 4.6 and 1.5 nM. Plates plated with DOHH2 or RS4;11 cells were placed at 37° C., with 5% CO2 for 120 h (DOHH2) or 72 h (RS4;11) respectively. 20 μl MTS/100 μl medium mixture solution were added to each well and incubate the plates for exactly 2 hours. The reaction was stopped by adding 25 μl 10% SDS per well. Measure absorbance at 490 nm and 650 nm (reference wavelength). IC50 was calculated using GraphPad Prism 5.0.
Select compounds prepared as described above were assayed according to the biological procedures described herein.

Row | IC50 (RS4;11 cells) [nM] | Compound | IC50 (DOHH2 cells) [nM]
1 | 38 | CC1(C)CCC(CN2CCN(c3ccc(C(=O)NS(=O)(=O)c4cc5c(c([N+](=O)[O-])c4)N[C@H](CCN4CCOCC4)C5)c(Oc4cnc5[nH]ccc5c4)c3)CC2)=C(c2ccc(Cl)cc2)C1 [Example 1-2, (S)-2-((1H-pyrrolo[2,3-b]pyridin-5-yl)oxy)-4-(4-((4′-chloro-5,5-dimethyl-3,4,5,6-tetrahydro-[1,1′-biphenyl]-2-yl)methyl)piperazin-1-yl)-N-((2-(2-morpholinoethyl)-7-nitroindolin-5-yl)sulfonyl)benzamide] | 79
2 | 8 | CN1CCN(C[C@@H]2Cc3cc(S(=O)(=O)NC(=O)c4ccc(N5CCN(CC6=C(c7ccc(Cl)cc7)CC(C)(C)CC6)CC5)cc4Oc4cnc5[nH]ccc5c4)cc([N+](=O)[O-])c3N2)CC1 [Example 1-3, (S)-2-((1H-pyrrolo[2,3-b]pyridin-5-yl)oxy)-4-(4-((4′-chloro-5,5-dimethyl-3,4,5,6-tetra-hydro-[1,1′-biphenyl]-2-yl)methyl)piperazin-1-yl)-N-((2-((4-methylpiperazin-1-yl)meth-yl)-7-nitroindolin-5-yl)sulfonyl)benzamide] | 20
3 | 51 | CN(C)C[C@@H]1Cc2cc(S(=O)(=O)NC(=O)c3ccc(N4CCN(CC5=C(c6ccc(Cl)cc6)CC(C)(C)CC5)CC4)cc3Oc3cnc4[nH]ccc4c3)cc([N+](=O)[O-])c2N1 [Example 1-5] | 211
4 | 3 | CN1CCN(C[C@H]2Cc3cc(S(=O)(=O)NC(=O)c4ccc(N5CCN(CC6=C(c7ccc(Cl)cc7)CC(C)(C)CC6)CC5)cc4Oc4cnc5[nH]ccc5c4)cc([N+](=O)[O-])c3N2)CC1 [Example 1-7, (R)-2-((1H-pyrrolo[2,3-b]pyridin-5-yl)oxy)-4-(4-((4′-chloro-5,5-dimethyl-3,4,5,6-tetra-hydro-[1,1′-biphenyl]-2-yl)methyl)piperazin-1-yl)-N-((2-((4-methylpiperazin-1-yl)meth-yl)-7-nitroindolin-5-yl)sulfonyl)benzamide] | 26
5 | 1 | CC1(C)CCC(CN2CCN(c3ccc(C(=O)NS(=O)(=O)c4cc5c(c([N+](=O)[O-])c4)N[C@@H](CN4CCOCC4)C5)c(Oc4cnc5[nH]ccc5c4)c3)CC2)=C(c2ccc(Cl)cc2)C1 [Example 1-8, (R)-2-((1H-pyrrolo[2,3-b]pyridin-5-yl)oxy)-4-(4-((4′-chloro-5,5-dimethyl-3,4,5,6-tetra-hydro-[1,1′-biphenyl]-2-yl)methyl)piperazin-1-yl)-N-((2-(morpholinomethyl)-7-nitro-indolin-5-yl)sulfonyl)benzamide] | 27
6 | 80 | CC1(C)CCC(CN2CCN(c3ccc(C(=O)NS(=O)(=O)c4cc5c(c([N+](=O)[O-])c4)N[C@@H](CN4CCC(C)(O)CC4)C5)c(Oc4cnc5[nH]ccc5c4)c3)CC2)=C(c2ccc(Cl)cc2)C1 [Example 1-9, (R)-2-((1H-pyrrolo[2,3-b]pyridin-5-yl)oxy)-4-(4-((4′-chloro-5,5-dimethyl-3,4,5,6-tetra-hydro-[1,1′-biphenyl]-2-yl)methyl)piperazin-1-yl)-N-((2-((4-hydroxy-4-methylpiperidin-1-yl)methyl)-7-nitroindolin-5-yl)sulfonyl) benzamide] | 66
7 | 16 | CN(C)C[C@H]1Cc2cc(S(=O)(=O)NC(=O)c3ccc(N4CCN(CC5=C(c6ccc(Cl)cc6)CC(C)(C)CC5)CC4)cc3Oc3cnc4[nH]ccc4c3)cc([N+](=O)[O-])c2N1 [Example 1-10, (R)-2-((1H-pyrrolo[2,3-b]pyridin-5-yl)oxy)-4-(4-((4′-chloro-5,5-dimethyl-3,4,5,6-tetra-hydro-[1,1′-biphenyl]-2-yl)methyl)piperazin-1-yl)-N-((2-((dimethylamino)methyl)-7-nitroindolin-5-yl)sulfonyl)benzamide] | 33
8 | 69 | CC1(C)CCC(CN2CCN(c3ccc(C(=O)NS(=O)(=O)c4cc5c(c([N+](=O)[O-])c4)N[C@@H](CO)C5)c(Oc4cnc5[nH]ccc5c4)c3)CC2)=C(c2ccc(Cl)cc2)C1 [Example 1-11, (R)-2-((1H-pyrrolo[2,3-b]pyridin-5-yl)oxy)-4-(4-((4′-chloro-5,5-dimethyl-3,4,5,6-tetra-hydro-[1,1′-biphenyl]-2-yl)methyl)piperazin-1-yl)-N-((2-(hydroxymethyl)-7-nitroindolin-5-yl)sulfonyl)benzamide] | 154
9 | 58 | CN1CCN(CC[C@@H]2Cc3cc(S(=O)(=O)NC(=O)c4ccc(N5CCN(CC6=C(c7ccc(Cl)cc7)CC(C)(C)CC6)CC5)cc4Oc4cnc5[nH]ccc5c4)cc([N+](=O)[O-])c3N2)CC1 [Example 1-12, (S)-2-((1H-pyrrolo[2,3-b]pyridin-5-yl)oxy)-4-(4-((4′-chloro-5,5-dimethyl-3,4,5,6-tetra-hydro-[1,1′-biphenyl]-2-yl)methyl)piperazin-1-yl)-N-((2-(2-(4-methylpiperazin-1-yl)eth-yl)-7-nitroindolin-5-yl)sulfonyl)benzamide] | 299
10 | 74 | CC1(C)CCC(CN2CCN(c3ccc(C(=O)NS(=O)(=O)c4cc5c(c([N+](=O)[O-])c4)N[C@H](CCN4CCC(C)(O)CC4)C5)c(Oc4cnc5[nH]ccc5c4)c3)CC2)=C(c2ccc(Cl)cc2)C1 [Example 1-13, (S)-2-((1H-pyrrolo[2,3-b]pyridin-5-yl)oxy)-4-(4-((4′-chloro-5,5-dimethyl-3,4,5,6-tetra-hydro-[1,1′-biphenyl]-2-yl)methyl)piperazin-1-yl)-N-((2-(2-(4-hydroxy-4-methylpiper-idin-1-yl)ethyl)-7-nitroindolin-5-yl)sulfonyl) benzamide] | 91
11 | 52 | CN(C)CC[C@@H]1Cc2cc(S(=O)(=O)NC(=O)c3ccc(N4CCN(CC5=C(c6ccc(Cl)cc6)CC(C)(C)CC5)CC4)cc3Oc3cnc4[nH]ccc4c3)cc([N+](=O)[O-])c2N1 [Example 1-14, (S)-2-((1H-pyrrolo[2,3-b]pyridin-5-yl)oxy)-4-(4-((4′-chloro-5,5-dimethyl-3,4,5,6-tetra-hydro-[1,1′-biphenyl]-2-yl)methyl)piperazin-1-yl)-N-((2-(2-(dimethylamino)ethyl)-7-nitroindolin-5-yl)sulfonyl)benzamide] | 57
12 | 15 | CN1CCN(CC[C@H]2Cc3cc(S(=O)(=O)NC(=O)c4ccc(N5CCN(CC6=C(c7ccc(Cl)cc7)CC(C)(C)CC6)CC5)cc4Oc4cnc5[nH]ccc5c4)cc([N+](=O)[O-])c3N2)CC1 [Example 1-15, (R)-2-((1H-pyrrolo[2,3-b]pyridin-5-yl)oxy)-4-(4-((4′-chloro-5,5-dimethyl-3,4,5,6-tetrahydro-[1,1′-biphenyl]-2-yl)methyl)piper-azin-1-yl)-N-((2-(2-(4-methylpiperazin-1-yl)ethyl)-7-nitroindolin-5-yl)sulfonyl) benzamide] | 50
13 | 16 | CC1(C)CCC(CN2CCN(c3ccc(C(=O)NS(=O)(=O)c4cc5c(c([N+](=O)[O-])c4)N[C@@H](CCN4CCOCC4)C5)c(Oc4cnc5[nH]ccc5c4)c3)CC2)=C(c2ccc(Cl)cc2)C1 [Example 1-16, (R)-2-((1H-pyrrolo[2,3-b]pyridin-5-yl)oxy)-4-(4-((4′-chloro-5,5-dimethyl-3,4,5,6-tetra-hydro-[1,1′-biphenyl]-2-yl)methyl)piperazin-1-yl)-N-((2-(2-morpholinoethyl)-7-nitro-indolin-5-yl)sulfonyl)benzamide] | 73
14 | 56 | CC1(C)CCC(CN2CCN(c3ccc(C(=O)NS(=O)(=O)c4cc5c(c([N+](=O)[O-])c4)N[C@@H](CCN4CCC(C)(O)CC4)C5)c(Oc4cnc5[nH]ccc5c4)c3)CC2)=C(c2ccc(Cl)cc2)C1 [Example 1-17, (R)-2-((1H-pyrrolo[2,3-b]pyridin-5-yl)oxy)-4-(4-((4′-chloro-5,5-dimethyl-3,4,5,6-tetra-hydro-[1,1′-biphenyl]-2-yl)methyl)piperazin-1-yl)-N-((2-(2-(4-hydroxy-4-methylpiper-idin-1-yl)ethyl)-7-nitroindolin-5-yl)sulfonyl) benzamide] | 61
15 | 18 | CN(C)CC[C@H]1Cc2cc(S(=O)(=O)NC(=O)c3ccc(N4CCN(CC5=C(c6ccc(Cl)cc6)CC(C)(C)CC5)CC4)cc3Oc3cnc4[nH]ccc4c3)cc([N+](=O)[O-])c2N1 [Example 1-18, (R)-2-((1H-pyrrolo[2,3-b]pyridin-5-yl)oxy)-4-(4-((4′-chloro-5,5-dimethyl-3,4,5,6-tetra-hydro-[1,1′-biphenyl]-2-yl)methyl)piperazin-1-yl)-N-((2-(2-(dimethylamino)ethyl)-7-nitroindolin-5-yl)sulfonyl)benzamide] | 5
